Experimental data from publication doi:10.1101/208439v1 (biorxiv, 2017).
Where two headings read alike, the source gives them in different places.

Legend:
NSD2 SET domain [1] = molecular target: T1, NSD2 SET domain (Homo sapiens, UniProt O96028); test: biochemical; set-up: Surface plasmon resonance binding to NSD2 SET domain
T1 construct: SET domain, residues 934-1241, N-terminal His tag, E. coli
T1 sequence (O96028 934-1241): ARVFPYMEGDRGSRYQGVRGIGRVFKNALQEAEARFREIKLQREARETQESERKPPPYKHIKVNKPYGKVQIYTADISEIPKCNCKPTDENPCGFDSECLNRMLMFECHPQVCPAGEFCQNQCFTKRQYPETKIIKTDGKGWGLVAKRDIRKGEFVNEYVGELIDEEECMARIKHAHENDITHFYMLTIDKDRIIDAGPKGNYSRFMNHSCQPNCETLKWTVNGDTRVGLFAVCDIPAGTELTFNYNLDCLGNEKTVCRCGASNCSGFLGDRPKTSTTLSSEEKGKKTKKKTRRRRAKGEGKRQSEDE
Description: To support an on-target mechanism of action for the five inhibitors, surface plasmon resonance (SPR) was used to determine whether each inhibitor interacts with the catalytic SET domain of NSD2. […] Chaetocin bound the SET domain with an apparent dissociation constant of 20 nM. Additionally, the data indicated super-stoichiometric binding, which might be due to a binding ratio higher than 1:1 that is consistent with chaetocin’s two disulfide moieties forming adducts with the NSD2 protein, or compound aggregation (data not shown) ([56]).

ASH1L = ASH1L (Homo sapiens, UniProt Q9NR48); settings: inhibitor; read-out: Control IC50 (µM), Chaetocin
GLP = molecular target: T2, GLP (Homo sapiens, UniProt Q9H9B1); test: biochemical
T2 construct: gene EHMT1
T2 sequence (Q9H9B1 1-1298): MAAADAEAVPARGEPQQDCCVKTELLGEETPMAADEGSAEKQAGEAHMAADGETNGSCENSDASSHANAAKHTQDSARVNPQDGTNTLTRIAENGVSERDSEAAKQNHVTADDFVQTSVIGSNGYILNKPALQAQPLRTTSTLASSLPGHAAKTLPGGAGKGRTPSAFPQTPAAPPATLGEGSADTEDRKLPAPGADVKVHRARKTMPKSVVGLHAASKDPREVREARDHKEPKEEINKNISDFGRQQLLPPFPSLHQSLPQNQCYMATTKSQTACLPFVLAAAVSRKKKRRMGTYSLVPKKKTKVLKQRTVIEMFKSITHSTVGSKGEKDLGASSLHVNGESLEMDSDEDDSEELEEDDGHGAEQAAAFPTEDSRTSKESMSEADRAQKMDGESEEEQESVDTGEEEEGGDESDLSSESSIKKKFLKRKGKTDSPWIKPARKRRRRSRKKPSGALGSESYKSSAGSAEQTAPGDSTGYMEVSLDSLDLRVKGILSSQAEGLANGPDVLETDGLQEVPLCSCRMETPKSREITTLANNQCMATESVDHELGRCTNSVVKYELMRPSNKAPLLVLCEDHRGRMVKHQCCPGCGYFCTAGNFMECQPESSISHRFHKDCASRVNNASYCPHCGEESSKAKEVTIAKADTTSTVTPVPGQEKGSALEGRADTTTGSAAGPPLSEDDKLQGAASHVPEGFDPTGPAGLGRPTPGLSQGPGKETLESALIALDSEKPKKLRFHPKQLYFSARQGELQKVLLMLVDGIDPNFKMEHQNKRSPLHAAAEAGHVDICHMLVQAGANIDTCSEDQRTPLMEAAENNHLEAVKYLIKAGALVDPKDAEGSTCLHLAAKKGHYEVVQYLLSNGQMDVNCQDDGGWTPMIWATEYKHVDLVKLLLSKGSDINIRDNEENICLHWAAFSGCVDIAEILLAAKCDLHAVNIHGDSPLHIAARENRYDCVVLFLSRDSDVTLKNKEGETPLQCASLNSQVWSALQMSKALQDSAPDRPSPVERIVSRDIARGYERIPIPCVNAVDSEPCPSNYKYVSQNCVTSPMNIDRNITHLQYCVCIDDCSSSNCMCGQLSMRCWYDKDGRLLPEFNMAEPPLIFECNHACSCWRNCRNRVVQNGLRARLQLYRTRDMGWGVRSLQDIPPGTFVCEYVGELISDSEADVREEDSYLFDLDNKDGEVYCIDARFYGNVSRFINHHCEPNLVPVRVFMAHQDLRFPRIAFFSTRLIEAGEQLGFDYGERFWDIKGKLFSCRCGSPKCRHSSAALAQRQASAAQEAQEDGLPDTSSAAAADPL

NSD3 = molecular target: T3, NSD3 (Homo sapiens, UniProt Q9BZ95); test: biochemical
T3 sequence (Q9BZ95 1021-1322): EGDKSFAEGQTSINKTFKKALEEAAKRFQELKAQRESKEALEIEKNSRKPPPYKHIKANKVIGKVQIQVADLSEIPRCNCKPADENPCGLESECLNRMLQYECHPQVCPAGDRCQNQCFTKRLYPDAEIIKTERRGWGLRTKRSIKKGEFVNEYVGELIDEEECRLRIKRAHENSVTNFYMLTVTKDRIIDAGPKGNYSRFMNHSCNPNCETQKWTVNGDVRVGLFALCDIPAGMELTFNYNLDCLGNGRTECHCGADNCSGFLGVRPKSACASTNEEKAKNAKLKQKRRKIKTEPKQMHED

PRMT7 = PRMT7 (Homo sapiens, UniProt Q9NVM4); test: biochemical
SET8 = molecular target: T4, SET8 (Homo sapiens, UniProt Q9NQR1); test: biochemical
T4 construct: gene KMT5A
T4 sequence (Q9NQR1 1-393): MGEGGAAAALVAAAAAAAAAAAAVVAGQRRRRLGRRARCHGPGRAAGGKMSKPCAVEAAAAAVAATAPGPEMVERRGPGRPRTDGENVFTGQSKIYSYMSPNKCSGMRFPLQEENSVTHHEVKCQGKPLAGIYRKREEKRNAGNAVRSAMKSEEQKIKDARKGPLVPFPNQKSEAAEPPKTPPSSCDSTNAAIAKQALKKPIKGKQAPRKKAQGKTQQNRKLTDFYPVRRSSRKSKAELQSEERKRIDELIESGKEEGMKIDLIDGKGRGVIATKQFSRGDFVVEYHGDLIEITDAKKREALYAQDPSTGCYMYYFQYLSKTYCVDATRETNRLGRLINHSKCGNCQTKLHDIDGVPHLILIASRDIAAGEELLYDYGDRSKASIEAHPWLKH

DNMT3b = molecular target: T5, DNMT3b (Homo sapiens, UniProt Q9UBC3); test: HotSpot [3H]SAM filter-binding methyltransferase assay; type: biochemical
T5 construct: residues 2-853, N-terminal GST fusion, insect cell/baculovirus

NSD1 = molecular target: T6, NSD1 (Homo sapiens, UniProt Q96L73); test: as above; type: biochemical
T6 construct: residues 1538-2696, N-terminal His tag, insect cell/baculovirus
T6 sequence (Q96L73 1538-2696): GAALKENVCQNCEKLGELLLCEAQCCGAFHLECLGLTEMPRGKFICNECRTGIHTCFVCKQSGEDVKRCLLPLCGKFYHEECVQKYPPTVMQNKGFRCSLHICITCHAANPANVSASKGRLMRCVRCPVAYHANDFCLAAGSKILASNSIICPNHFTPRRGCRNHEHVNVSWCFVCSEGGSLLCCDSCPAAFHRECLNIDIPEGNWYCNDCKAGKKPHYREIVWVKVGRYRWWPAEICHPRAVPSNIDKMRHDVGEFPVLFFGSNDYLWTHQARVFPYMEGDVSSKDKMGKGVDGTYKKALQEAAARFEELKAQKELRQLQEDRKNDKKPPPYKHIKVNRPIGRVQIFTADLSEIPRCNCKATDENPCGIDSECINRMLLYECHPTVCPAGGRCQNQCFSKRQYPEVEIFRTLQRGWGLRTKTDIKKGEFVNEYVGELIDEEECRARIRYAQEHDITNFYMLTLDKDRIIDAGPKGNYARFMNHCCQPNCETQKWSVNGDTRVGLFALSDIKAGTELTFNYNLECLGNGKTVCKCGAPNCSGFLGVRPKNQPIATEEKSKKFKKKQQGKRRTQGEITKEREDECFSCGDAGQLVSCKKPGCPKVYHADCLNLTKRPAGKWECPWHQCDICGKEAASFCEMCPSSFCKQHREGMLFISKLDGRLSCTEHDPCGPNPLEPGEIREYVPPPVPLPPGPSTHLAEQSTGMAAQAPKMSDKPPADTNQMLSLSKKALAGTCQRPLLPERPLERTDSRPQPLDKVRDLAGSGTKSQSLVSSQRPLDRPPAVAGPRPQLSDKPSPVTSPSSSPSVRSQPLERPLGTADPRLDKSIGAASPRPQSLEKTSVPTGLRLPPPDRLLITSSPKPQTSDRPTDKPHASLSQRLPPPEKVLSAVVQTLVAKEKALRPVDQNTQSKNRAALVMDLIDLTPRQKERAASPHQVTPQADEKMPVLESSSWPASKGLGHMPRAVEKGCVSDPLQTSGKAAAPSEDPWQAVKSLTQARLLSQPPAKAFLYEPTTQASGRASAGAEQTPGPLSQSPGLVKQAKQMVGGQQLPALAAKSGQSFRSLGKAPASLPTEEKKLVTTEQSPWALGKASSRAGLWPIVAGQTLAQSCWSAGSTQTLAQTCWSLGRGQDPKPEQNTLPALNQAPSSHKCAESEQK

NSD2 SET domain [2] = molecular target: T1, NSD2 SET domain; test: SPR Biacore 8K, single-cycle kinetics, […] model; type: binding
[3] = apparent, super-stoichiometric binding, binder

Chain of PRMT7 (Q9NVM4 whole entry): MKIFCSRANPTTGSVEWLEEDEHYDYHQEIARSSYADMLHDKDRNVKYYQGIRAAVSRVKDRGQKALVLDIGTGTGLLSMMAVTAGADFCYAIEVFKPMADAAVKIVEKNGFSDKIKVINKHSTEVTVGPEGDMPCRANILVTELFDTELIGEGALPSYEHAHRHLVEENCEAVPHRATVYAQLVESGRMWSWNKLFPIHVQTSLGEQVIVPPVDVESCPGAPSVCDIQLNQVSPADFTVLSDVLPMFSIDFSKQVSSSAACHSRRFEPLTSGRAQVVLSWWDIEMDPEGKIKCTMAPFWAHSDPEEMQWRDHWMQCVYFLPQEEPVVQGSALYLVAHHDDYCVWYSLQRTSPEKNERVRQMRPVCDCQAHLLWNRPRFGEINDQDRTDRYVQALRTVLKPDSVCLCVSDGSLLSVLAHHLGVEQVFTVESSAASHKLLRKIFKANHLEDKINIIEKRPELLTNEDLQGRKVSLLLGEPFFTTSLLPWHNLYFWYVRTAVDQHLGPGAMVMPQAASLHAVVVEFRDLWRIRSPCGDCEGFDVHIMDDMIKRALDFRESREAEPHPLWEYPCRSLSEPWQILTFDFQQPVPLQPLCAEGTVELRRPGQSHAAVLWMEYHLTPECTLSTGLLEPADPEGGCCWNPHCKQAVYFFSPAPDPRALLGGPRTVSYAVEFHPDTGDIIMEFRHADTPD

Structure (SMILES): CN1C(=O)[C@@]23C[C@]4([C@]56C[C@@]78SS[C@@](CO)(C(=O)N7[C@H]5Nc5ccccc56)N(C)C8=O)c5ccccc5N[C@@H]4N2C(=O)[C@]1(CO)SS3 [Chaetocin]
- Kd (NSD2 SET domain [1]; apparent, super-stoichiometric binding): 20 nM
- koff (NSD2 SET domain [1]; [3]): 4.59e-05 s⁻¹
- kon (NSD2 SET domain [1]; [3]): 2210 M⁻¹ s⁻¹
- IC50 (ASH1L): 0.1 µM
- IC50 (GLP): 77000 nM
- IC50 (NSD3): 90 nM
- IC50 (PRMT7): 156000 nM

Structure (SMILES): Cc1ccc(NC2=CC(=O)c3sc(C)nc3C2=O)cc1 [Ryuvidine]
- IC50 (SET8): 950 nM

Structure (SMILES): Nc1ncnc2c1ncn2[C@@H]1O[C@H](CSCC[C@H](N)C(=O)O)[C@@H](O)[C@H]1O [SAH, reference compound]
- IC50 (DNMT3b): 65 nM
- IC50 (NSD1): 9700 nM

Structure (SMILES): C[S+](CC[C@H](N)C(=O)O)C[C@H]1O[C@@H](n2cnc3c(N)ncnc32)[C@H](O)[C@@H]1O (stereo partly shown) [SAM]
- Kd (NSD2 SET domain [2]): 4200 nM
- koff (NSD2 SET domain [1]; read-out: koff): 0.017 s⁻¹
- kon (NSD2 SET domain [1]; read-out: kon): 4060 M⁻¹ s⁻¹
